The source of these data is US20240382564A1, “Methods and Compositions for Treating Muscular Dystrophy and Memory Impairment” (Allysta Pharmaceuticals, Inc., priority 2023, published 2024).

Holding throughout (type): in vivo, mouse
The subject of experiment [1] is D2.mdx mice. The experiment can be described thus: H&E staining, damaged areas of muscle. As to the method:
(§1) D2.mdx mice were treated with ALY688 at two different dosages; high dose (HD; 15 mg/kg body weight/day) or low dose (LD; 3 mg/kg body weight/day) dissolved in saline. A separate group of mice were treated with saline alone (VEH, vehicle). Treatment was provided via subscapular subcutaneous injections from 7 days of age to 28-30 days. […] At 28-30 days of age, mice were anaesthetized with isoflurane vaporized in medical air (21% oxygen) at a 2 L/min flow rate. Due to tissue limitations in limb muscle, certain measures were performed separately in tibialis anterior and quadriceps across several phases of breeding. […]
Samples collected were cut into 8 µm thick serial cross sections with a cryostat (Thermo Fisher Scientific; Kalamazoo, MI, United States;) maintained at −20° C. on Fisherbrand Superfrost Plus slides (Thermo Fisher Scientific). […] Centralized nuclei, a marker of regenerating fibres, was analyzed by selecting five evenly spaced images throughout the muscle and averaging the result. Areas of damage (fibres with fragmented sarcoplasm and immune cell infiltration) were expressed as a percentage of the entire muscle section. Images were taken using EVOS M7000 imager (Thermo Fisher Scientific) using 20× magnification and analyzed using ImageJ (http://imagej.nih.gov/ij/). […] These images were then analyzed with ImageJ for minimal Feret's diameter as an index of muscle atrophy.

For experiment [2], the system named is D2.mdx mice. The experiment can be described thus: Mitochondrial H2O2 emission in permeabilized muscle fibre bundles. The method, then: D2.mdx mice were treated with ALY688 at two different dosages; high dose (HD; 15 mg/kg body weight/day) or low dose (LD; 3 mg/kg body weight/day) dissolved in saline. A separate group of mice were treated with saline alone (VEH, vehicle). Treatment was provided via subscapular subcutaneous injections from 7 days of age to 28-30 days. […] At 28-30 days of age, mice were anaesthetized with isoflurane vaporized in medical air (21% oxygen) at a 2 L/min flow rate. Due to tissue limitations in limb muscle, certain measures were performed separately in tibialis anterior and quadriceps across several phases of breeding. Following the treatment protocol, in situ quadriceps force assessments were then performed in one limb followed by removal of the quadriceps from the other limb for mitochondrial assessments, diaphragm for in vitro force assessments and finally other tissues for further processing as described below. Muscle and visceral organs weights were normalized to tibia length. Tissue collected from the first phase were utilized in force, histological, mitochondrial measures (respiration, mH2O2 and calcium retention capacity) and western analyses (diaphragm and quadriceps only). A second phase was then collected and utilized for cytokine profiling, qPCR analyses and additional westerns (TA only). Serum was collected from both phase 1 and 2 and utilized for serum CK analysis. All animals were utilized in in vivo functional assays (grip strength, cage hang time and voluntary wheel running).
The quadriceps from the non-stimulated limb and the diaphragm were collected and quickly placed in a buffer containing (in mM) 50 MES Hydrate, 7.23 K2EGTA, 2.77 CaK2EGTA, 20 imidazole, 0.5 dithiothreitol, 20 taurine, 5.77 ATP, 15 PCr, and 6.56 MgCl2·6H2O (pH 7.1). Both muscles were trimmed of connective tissue and fat and separated along the longitudinal axis into small bundles weighing approximately 1.0-2.5 mg wet weight for respiration and mH2O2 and 0.5-1.5 mg wet weight for calcium retention capacity. Bundles were permeabilized with […] saponin (Sigma Aldrich; St. Louis, MI, USA) in BIOPS on a platform rotor for 30 minutes at 4° C. The permeabilized bundles were then transferred to wash buffers to remove saponin as follows: MiRO5 for mitochondrial respiration, Buffer Z for mitochondrial H2O2 emission (mH2O2), and Buffer Y for calcium retention capacity. The composition of each buffer has been described previously. Fibres prepared for pyruvate-supported mitochondrial H2O2 emission (mH2O2) were permeabilized in the presence of 35 μM 2,4-dinitrochlorobenzene (CDNB) to deplete glutathione and enhance the detection of mH2O2. All bioenergetic assays were performed within 4 hours of washing to maintain fibre viability.
Briefly, mH2O2 was determined spectrofluorometrically (QuantaMaster 40, HORIBA Scientific, Irvine, CA, USA) utilizing Buffer Z containing 10 μM Amplex Ultra Red (Life Technologies; Carlsbad, CA, USA), 1 U/mL horseradish peroxidase, 1 mM EGTA, 40 U/mL Cu/Zn SOD1, 5 μM blebbistatin and 20 mM Cr. […] The ability of ADP to suppress mH2O2 was assessed with a titration of physiological concentrations (25, 100) and saturating for oxidant generation (500 μM). […] The rate of mH2O2 emission was calculated using a standard curve under the same assay conditions and then normalized to fibre bundle dry weight.

Experiment [3] has as its system D2.mdx mice. Put plainly: Mitochondrial calcium retention capacity. The conditions noted are these: between groups. The method, then: as §1
This assay was measured spectrofluorometrically (QuantaMaster 80, HORIBA Scientific) in a cuvette with 300 μL assay buffer containing 1 μM Calcium Green-5N (Invitrogen), 2 μM thapsigargin, 5 μM blebbistatin, and 40 μM EGTA while maintained at 37° C. with continuous stirring. 5 mM glutamate, 2 mM malate, 5 mM ADP and 20 mM creatine were added to the assay buffer and minimum fluorescence was recorded. 4 nmol pulses of CaCl2 were added until the mitochondrial permeability transition pore (mPTP) opening was observed as an increase in fluorescence corresponding to net mitochondrial calcium release, at which point saturating pulses of CaCl2 were used to establish maximum fluorescence. […]

Where no end group is shown, it is not given here. [ ]: non-standard residue; d: D form. Nva = CCC[C@H](N)C(=O)O

Regarding [dN]IP[Nva]LY[dS]FA[dS]-NH2 [ALY688], the “damaged areas (H&E)” value in experiment [1] (diaphragm, all D2.mdx groups (VEH, LD, HD)) is listed as 3.7-to-3.9 fold change vs WT; in experiment [1] (tibialis anterior, all three D2.mdx groups), 17.2-to-22.6 fold increase vs WT. The “mitochondrial responsiveness to ADP (pyruvate/malate-supported mH2O2 emission)” value in experiment [2] (diaphragm, HD) was “completely preserved”. Moreover, in experiment [2] (diaphragm, HD, across ADP concentrations), the “reduction of pyruvate/malate-supported mH2O2 emission” value was 8.7 to 70.7%. The “succinate-induced mH2O2 emission” value in experiment [2] (diaphragm, absence and presence of creatine, LD and HD) is “no effect of either drug dose”. For the same substance, the “attenuation of succinate-induced mH2O2 emission” value in experiment [2] (quadriceps, both doses, absence and presence of creatine) lay in the range of 11.3 to 73.6%. Further, in experiment [2] (quadriceps, both doses, across ADP concentrations), the “attenuation of pyruvate/malate-supported mH2O2 emission” value lay within 45.9 to 62.3%. In experiment [3], the “mitochondrial calcium retention capacity” value was “no differences between groups”.
